Reference: US4835154A, “1-aralykyl-5-piperazinylmethyl-2-mercaptoimidazoles and 2-alkylthioimidazoles and their use as dopamine-βhydroxylase inhibitors” (SmithKline Beckman Corporation, priority 1987, dated 1989)

Experiments:
DBH [1] = target: T1, DBH (Homo sapiens, UniProt P09172); settings: literature reports; cited from earlier work
T1 sequence (P09172 1-617): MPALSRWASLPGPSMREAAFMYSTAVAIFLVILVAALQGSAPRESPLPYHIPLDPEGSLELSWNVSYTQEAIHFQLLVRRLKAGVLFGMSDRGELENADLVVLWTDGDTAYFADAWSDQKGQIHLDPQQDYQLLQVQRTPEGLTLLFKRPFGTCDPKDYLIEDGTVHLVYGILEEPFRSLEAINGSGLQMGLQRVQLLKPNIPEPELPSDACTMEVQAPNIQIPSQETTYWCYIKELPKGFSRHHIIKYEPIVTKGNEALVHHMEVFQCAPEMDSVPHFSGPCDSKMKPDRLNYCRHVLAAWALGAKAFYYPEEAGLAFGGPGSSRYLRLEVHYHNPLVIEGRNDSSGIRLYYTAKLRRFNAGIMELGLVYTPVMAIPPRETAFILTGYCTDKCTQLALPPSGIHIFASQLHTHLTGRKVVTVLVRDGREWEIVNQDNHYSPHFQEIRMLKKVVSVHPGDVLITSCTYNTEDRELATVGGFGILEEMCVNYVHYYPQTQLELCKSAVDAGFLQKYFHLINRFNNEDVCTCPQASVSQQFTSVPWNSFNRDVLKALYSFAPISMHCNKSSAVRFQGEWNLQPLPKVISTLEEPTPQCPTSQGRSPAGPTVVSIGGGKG

[2] = Ehrreich et al., 1976; cited from earlier work
[3] = tested on: spontaneously hypertensive rats; assay: mean arterial blood pressure in spontaneously hypertensive rats; format: in vivo; settings: 50 mg/kg intraperitoneally, vs vehicle-treated controls
Procedure: Further, spontaneously hypertensive rats were treated with the compound in Table I at a dose of 50 mg/kg intraperitoneally, and mean arterial blood pressure was monitored for 260 minutes using indwelling cannulae in the tail arteries. […] The maximal blood pressure reduction was approximately 25 mmHg.

DBH [4] = target: T2, DBH (Bos taurus, UniProt P15101); assay: in vitro DBH inhibition, conversion of tyramine to octopamine; format: biochemical; settings: molar concentration of compound at which DBH activity was halved; octopamine assayed as p-hydroxybenzaldehyde at 330 nm
T2 sequence (P15101 1-610): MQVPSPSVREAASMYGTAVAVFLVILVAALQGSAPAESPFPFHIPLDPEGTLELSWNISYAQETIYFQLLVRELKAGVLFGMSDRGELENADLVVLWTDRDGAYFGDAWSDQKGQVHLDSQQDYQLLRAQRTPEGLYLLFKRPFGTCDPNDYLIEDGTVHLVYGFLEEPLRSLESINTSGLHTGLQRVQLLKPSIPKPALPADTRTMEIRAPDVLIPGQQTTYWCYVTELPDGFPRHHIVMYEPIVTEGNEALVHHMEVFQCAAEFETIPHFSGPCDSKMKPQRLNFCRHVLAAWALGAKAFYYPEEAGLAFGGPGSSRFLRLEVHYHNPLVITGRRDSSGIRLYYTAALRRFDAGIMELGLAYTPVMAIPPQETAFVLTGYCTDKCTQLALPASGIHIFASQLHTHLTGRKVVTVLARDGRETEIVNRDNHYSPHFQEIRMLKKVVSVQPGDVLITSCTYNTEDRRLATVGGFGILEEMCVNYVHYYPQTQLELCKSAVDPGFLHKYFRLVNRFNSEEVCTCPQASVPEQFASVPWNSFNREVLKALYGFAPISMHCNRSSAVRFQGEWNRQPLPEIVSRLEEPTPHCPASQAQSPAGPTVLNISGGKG
Procedure: Listed in Table I is the compound of the invention that was tested for in vitro DBH inhibition by a standard procedure for assaying conversion of tyramine to octopamine in the presence of DBH. J. J. Pisano, et al., Biochim. Biophys. Acta, 43, 566-568 (1960). Octopamine was assayed following sodium periodate oxidation to p-hydroxybenzaldehyde by measuring spectrophotometric absorbance at 330 nm. In Table I, inhibition is given in molar concentration of compound at which DBH activity was halved (IC50). Fusaric acid, by this test has an IC50 of 8×10^-7 M.

[5] = Teresawa et al., 1971; cited from earlier work

Structure (SMILES)	DBH inhibition (in words) (DBH [1])	other results
CCCCc1ccc(C(N)=O)nc1 [Bupicomide, 5-(n-butyl)picolinamine]	DBH inhibitor	antihypertensive activity [2]: antihypertensive activity
O=C(O)c1ccc(CCC(Br)CBr)cn1 (stereo not drawn) [5-(3,4-dibromobutyl)picolinic acid]	DBH inhibitors	–
CN1CCN(Cc2cnc(S)n2Cc2cc(F)cc(F)c2)CC1 [Example 1, 1-(3,5-Difluorobenzyl)-5-[(4-methyl-1-piperazinyl)methyl]-2-mercaptoimidazole]	–	maximal blood pressure reduction ([3]; mean arterial blood pressure monitored for 260 minutes): approximately 25 mmHg; time to significant blood pressure reductions following treatment [3]: ≤ 30 min; blood pressure effect ([3]; within 30 minutes): significant blood pressure reductions; IC50 (DBH [4]): 590 µM
NOCc1ccccc1 [Benzyloxyamine]	competitive inhibitors	–
NNCc1ccccc1 [benzylhydrazine]	competitive inhibitors	–
CN(C)C(=S)SCc1ccc(C(=O)O)nc1 [5-(dimethyldithiocarbamoylmethyl)picolinic acid]	DBH inhibitors	–
CCCCc1ccc(C(=O)O)nc1 [Fusaric acid]	–	hepatotoxicity [5]: hepatotoxic
O=C(O)c1ccc(CCCCCl)cn1 [5-(4-chlorobutyl) picolinic acid]	inhibit DBH	–
